Where a SMILES comes first, the peptide text is derived from it.
How the values were obtained:
[1] = Stability of C2TCO in full cell growth media, titration with DMT; type: in vitro ADME; details: full cell growth media (10% FBS), 37° C., up to 48 h
Text: C2TCO can be incorporated into probes that bind to intracellular targets.

[2] = Endpoint cleavage of AF594-C2TCO-AF594 with tetrazines (HPLC, fluorescence detection); details: 15 + excess tetrazine, buffered solution pH 7.4, endpoint 24 h
Experimental: As an initial assessment of cleavage efficiency, 15 was reacted with an excess of selected tetrazines in buffered solution at pH 7.4 and analyzed the reaction mixtures at an endpoint of 24 h by HPLC with fluorescence detection. […] One hypothesis is that this is not only due to slow tautomerization, but also limited elimination of the respective B1/B2 intermediate. The inability to achieve complete release with Pyr2Tz highlights the advantages of a cleavage directing group.
Release measurements with AF594-C2TCO-AF594: Analytical stock solutions and buffers. 10 mM stock solutions of the release probe AF594-C2TCO-AF594 was prepared and further diluted with citrate-phosphate buffer (as indicated below), so that the final concentration of DMSO in buffer was never higher than 2%. Tetrazine stock solutions were prepared in DMSO at concentrations ranging from 10-100 mM and diluted with citrate-phosphate buffer (as indicated below), so that the final concentration of DMSO in buffer was never higher than 2%. […]
Endpoint measurements with AF594-C2TCO-AF594. […] The released AF594-amine was detected using an RF-20Axs fluorescence detector and confirmed by a LCMS-2020 mass spectrometer (ESI) implemented in the Nexera X2® UHPLC system.

[3] = in vivo; cited from earlier work
[4] = Release from rTCO-AlexaFluor 350 conjugate monitored by LCMS; details: Tz 200 μM, 7 125 μM, pH 7, 25° C.; PyrMe within ~8 hours, PyrPA initial fast phase
Experimental: Similar to the previous study (Carlson et al.), an rTCO-AlexaFluor 350 conjugate was used (7, FIG. 5) to further investigate the release step. Reactions were carried out in buffered aqueous solution at pH 7 and 25° C., selecting concentrations of PyrMe or PyrPA (200 μM) and 7 (125 μM) such that the click reaction was done in less than 4 minutes, allowing temporal monitoring of post-click reactions by LCMS. With PyrMe, slow monophasic release was observed that reached a yield of approximately 50% within ˜8 hours. […] To verify these hypotheses, PyrMe was reacted with rTCO-glycine, the release reaction was allowed to proceed to completion, and the non-releasing isomer was then isolated. […] This key finding is in line with the observations of Sarris et al., who achieved approx. 80% release with PymK (3) and invoked the preferred formation of the releasing adduct with the ethylammonium moiety in head-to-head position. (due to pre-click interaction of NH3^+ with the carbamate functionality of the leaving group) to explain this increased conversion.

[5] = Second order rate constants of tetrazines with PEGylated rTCO 6; details: reaction with PEGylated rTCO 6

## OC1/C=C/C(O)CCCC1 (stereo not drawn) [C2TCO, anti-cyclooct-2-ene-1,4-diol]
[1]
  stability (intact C2TCO): > 97%

## Cc1nnc(C)nn1 [DMT]
[2]
  cleavage: Nearly complete cleavage

## N=C(N)NCCCC[C@@H]1NC(=O)CCSSC[C@@H](C(N)=O)NC(=O)[C@@H]2CCCN2C(=O)[C@H](Cc2c[nH]c3ccccc23)NC(=O)[C@H](CC(=O)O)NC(=O)CNC1=O [Eptifibatide] (HELM PEPTIDE1{[O=C(CCS[*:3])[*:2]].[N=C(N)NCCCC[C@H](N[*:1])C(=O)[*:2]].G.D.W.P.C.[am]}$PEPTIDE1,PEPTIDE1,1:R3-7:R3$$$V2.0)
[3]
  half-life: 3 to 4 h

## c1ccc(-c2nnc(-c3ccccn3)nn2)nc1 [Pyr2Tz, 3,6-bis(2-pyridyl)tetrazine]
[2]
  cleavage: 23%

## Cc1nnc(-c2ccccn2)nn1 [PyrMe]
[4]
  release yield: approximately 50%
[5]
  rate enhancement vs. DMT: up to 12 fold

## O=C(O)CCc1nnc(-c2ccccn2)nn1 [PyrPA]
[4]
  release yield: very similar release yield

## alteplase: widely-used tPA thrombolytic
[3]
  clearance t1/2: about 5 min

From patent US20240058455A1, “BIOORTHOGONAL LINKERS AND REACTIONS” (The General Hospital Corporation, priority 2020, published 2024)
